Measured values published in patent US20070004653A1, “Stable lyophilized anthracycline glycosides” (priority 2005, published 2007).

Assay: Stability tests of stabilized Idarubicin HCl, 1% w/v aqueous solution with NH4OAc or NH4OAc + AcOH
Format: physicochemical
Method: Starting product was idarubicin hydrochloride, 1% w/v aqueous solution, the analysis of which is shown in the data reported at t=0. 3% mol of NH4OAc with respect to idarubicin hydrochloride was added to the solution at t=0 and the solution was incubated at 4° C. for the indicated time.
Starting product was idarubicin hydrochloride, 1% w/v aqueous solution, the analysis of which is shown in the data reported at t=0. 3% mol of NH4OAc with respect to idarubicin hydrochloride was added to the solution at t=0 and the solution was incubated at 20° C. for the indicated time.
Starting product was idarubicin hydrochloride, 1% w/v aqueous solution, the analysis of which is shown in the data reported at t=0. 1% mol of NH4OAc with respect to idarubicin hydrochloride was added to the solution at t=0 and the solution was incubated at 4° C. for the indicated time.
Starting product was idarubicin hydrochloride, 1% w/v aqueous solution, the analysis of which is shown in the data reported at t=0. 1% mol of NH4OAc with respect to idarubicin hydrochloride was added to the solution at t=0 and the solution was incubated at 20° C. for the indicated time.
Starting product was idarubicin hydrochloride, 1% w/v aqueous solution, the analysis of which is shown in the data reported at t=0. 0.5% mol of NH4OAc and 0.5% mol of AcOH with respect to idarubicin hydrochloride were added to the solution at t=0 and the solution was incubated at 4° C. for the indicated time.
Starting product was idarubicin hydrochloride, 1% w/v aqueous solution, the analysis of which is shown in the data reported at t=0. 0.5% mol of NH4OAc and 0.5% mol of AcOH with respect to idarubicin hydrochloride were added to the solution at t=0 and the solution was incubated at 20° C. for the indicated time as shown in table 30.
Starting product was idarubicin hydrochloride, 1% w/v aqueous solution, the analysis of which is shown in the data reported at t=0. 1.5% mol of NH4OAc and 1.5% mol of AcOH with respect to idarubicin hydrochloride were added to the solution at t=0 and the solution was incubated at 4° C. for the indicated time.
Starting product was idarubicin hydrochloride, 1% w/v aqueous solution, the analysis of which is shown in the data reported at t=0. 1.5% mol of NH4OAc and 1.5% mol of AcOH with respect to idarubicin hydrochloride were added to the solution at t=0 and the solution was incubated at 20° C. for the indicated time.

[1] = NH4OAc 0.5% mol + AcOH 0.5% mol, pH 5.08, 4° C., 25 hr
[2] = NH4OAc 0.5% mol + AcOH 0.5% mol, pH 5.08, 4° C., 95 hr
[3] = NH4OAc 0.5% mol + AcOH 0.5% mol, pH 5.08, 20° C., 19 hr
[4] = NH4OAc 0.5% mol + AcOH 0.5% mol, pH 5.08, 20° C., 90 hr
[5] = NH4OAc 1% mol, pH 5.92, 4° C., 24 hr
[6] = NH4OAc 1% mol, pH 5.92, 20° C., 18 hr
[7] = NH4OAc 1% mol, pH 5.92, 20° C., 313 hr
[8] = NH4OAc 1.5% mol + AcOH 1.5% mol, pH 4.94, 4° C., 314 hr
[9] = NH4OAc 1.5% mol + AcOH 1.5% mol, pH 4.94, 20° C., 21 hr
[10] = NH4OAc 1.5% mol + AcOH 1.5% mol, pH 4.94, 20° C., 68 hr
[11] = NH4OAc 1.5% mol + AcOH 1.5% mol, pH 4.94, 20° C., 139 hr
[12] = NH4OAc 1.5% mol + AcOH 1.5% mol, pH 4.94, 20° C., 315 hr
[13] = NH4OAc 3% mol, pH 5.94, 4° C., 30 hr
[14] = NH4OAc 3% mol, pH 5.94, 4° C., 131 hr
[15] = NH4OAc 3% mol, pH 5.94, 20° C., 26 hr
[16] = NH4OAc 3% mol, pH 5.94, 20° C., 130 hr

`CC(=O)[C@]1(O)Cc2c(O)c3c(c(O)c2[C@@H](O[C@H]2C[C@@H](N)[C@H](O)C(C)O2)C1)C(=O)c1ccccc1C3=O.Cl` (stereo partly drawn) [Idarubicin HCl, Idarubicin hydrochloride] showed an aglycone [1] of 0.59%, a bis-anhydro [1] of 0.04% and an aglycone [2] of 0.59%. For the same compound, the bis-anhydro [2] was 0.05%, the aglycone (NH4OAc 0.5% mol + AcOH 0.5% mol, pH 5.08, 4° C., t = 0) was 0.59% and the aglycone [3] was 0.59%. It also gave a bis-anhydro [3] of 0.07%, an aglycone [4] of 0.59% and a bis-anhydro [4] of 0.18%. The aglycone (NH4OAc 0.5% mol + AcOH 0.5% mol, pH 5.08, 20° C., t = 0) was 0.59%, the “% aglycone” value [5] was 0.59% and the “% bis-anhydro” value [5] was 0.05%. For the same compound, the “% aglycone” value (NH4OAc 1% mol, pH 5.92, 4° C., t = 0) was 0.59%, the “% aglycone” value [6] was 0.59% and the “% bis-anhydro” value [6] was 0.20%. For the same compound, the “% aglycone” value [7] was 0.60%, the “% bis-anhydro” value [7] was 4.46% and the “% aglycone” value (NH4OAc 1% mol, pH 5.92, 20° C., t = 0) was 0.59%. It also gave an aglycone (NH4OAc 1.5% mol + AcOH 1.5% mol, pH 4.94, 4° C., 26 hr) of 0.59%, an aglycone (NH4OAc 1.5% mol + AcOH 1.5% mol, pH 4.94, 4° C., 97 hr) of 0.59% and an aglycone [8] of 0.59%. It also gave a bis-anhydro [8] of 0.06%, an aglycone (NH4OAc 1.5% mol + AcOH 1.5% mol, pH 4.94, 4° C., t = 0) of 0.59% and an aglycone [9] of 0.59%. The bis-anhydro [9] was 0.06%, the aglycone [10] was 0.59% and the bis-anhydro [10] was 0.16%. It also gave an aglycone [11] of 0.59%, a bis-anhydro [11] of 0.75% and an aglycone [12] of 0.6%. For the same compound, the bis-anhydro [12] was 6.21%, the aglycone (NH4OAc 1.5% mol + AcOH 1.5% mol, pH 4.94, 20° C., t = 0) was 0.59% and the “% aglycone” value [13] was 0.59%. For the same compound, the “% bis-anhydro” value [13] was 0.09%, the “% aglycone” value [14] was 0.59% and the “% bis-anhydro” value [14] was 0.25%. For the same compound, the “% aglycone” value (NH4OAc 3% mol, pH 5.94, 4° C., t = 0) was 0.59%, the “% aglycone” value [15] was 0.59% and the “% bis-anhydro” value [15] was 0.50%. The “% aglycone” value [16] was 0.59%, the “% bis-anhydro” value [16] was 1.39% and the “% aglycone” value (NH4OAc 3% mol, pH 5.94, 20° C., t = 0) was 0.59%.
